Like-named read-outs stand apart in the source and are kept apart here. Values belong to the compound of their own block, whether it stands above or below them.
Tested on: PMA-differentiated THP-1 cells
Assay: IL-1β production in PMA-differentiated THP-1 cells stimulated with gramicidin (hTHP-1 assay containing 2% fetal bovine serum; Procedures 1 and 2)
Assay type: cell-based, human
Details: 2% fetal bovine serum
How it was run: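 PMA 20 ng/ml 16-18 h → trypsinise → 50,000 cells/well, RPMI/2% FBS; cpd 1 h (11-pt, 100–0.0017 μM; DMSO 0.37%); gramicidin 5 μM, 2 h; spin; supernatant IL-1β via HTRF.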

[1] = Homo sapiens, THP-1, Table B3, hTHP-1 assay, class symbols, read-out: IC50
[2] = Table B2, class symbols, read-out: hTHP-1 IC50
[3] = Homo sapiens, THP-1, Table B1, class symbols, read-out: Average IC50 of compounds in hTHP-1 assay: hTHP-1 IC50
[4] = Homo sapiens, THP-1, Table B2, class symbols, read-out: hTHP-1 IC50
[5] = Homo sapiens, THP-1, Table B2, numeric bounds, read-out: hTHP-1 IC50

Compound: CCc1csc(S(N)(=O)=NC(=O)Nc2c3c(nc4c2CC[C@H]4C)CCC3)c1 (single isomer, unassigned) [Compound 721b, (R) or (S)-4-Ethyl-N′-(((R)-3-methyl-1,2,3,5,6,7-hexahydrodicyclopenta[b, e]pyridin-8-yl)carbamoyl)thiophene-2-sulfonimidamide]
IC50 [2]: 40 to 200 nM

Compound: CC1CCc2c1nc1c(c2NC(=O)N=S(N)(=O)c2ccc(CN(C)C)cc2F)CCC1 (stereo not shown) [Compound 139, 4-((dimethylamino)methyl)-2-fluoro-N′-((3-methyl-1,2,3,5,6,7-hexahydrodicyclopenta[b,e]pyridin-8-yl)carbamoyl)benzenesulfon-imidamide]
IC50 [3]: 200 to 1000 nM

Compound: Cc1nc2c(c(NC(=O)N=S(N)(=O)c3cnc(C(C)(C)O)s3)c1C)CCC2 (stereo not shown) [Compound 138, N′-((2,3-dimethyl-6,7-dihydro-5H-cyclopenta[b]pyridin-4-yl)carbamoyl)-2-(2-hydroxypropan-2-yl)thiazole-5-sulfonimidamide]
IC50 [3]: 5000 to 30000 nM

Compound: CC(C)(O)c1cc(F)c(S(N)(=O)=NC(=O)Nc2c3c(nc4c2CCC42CC2)CCC3)s1 (single isomer, unassigned) [Compound 101b, (R) or (S)-3-fluoro-5-(2-hydroxypropan-2-yl)-N′-((1′,5′,6′,7′-tetrahydro-2′H-spiro[cyclopropane-1,3′-dicyclopenta[b,e]pyridin]-8′-yl)carbamoyl)thiophene-2-sulfonimidamide]
IC50 (Table B1, class symbols, read-out: Average IC50 of compounds in hTHP-1 assay: hTHP-1 IC50): 8 to 40 nM

Compound: CCc1nc2c(c(NC(=O)N=S(N)(=O)c3cnc(C(C)(C)O)s3)c1C1CC1)CCC2 (single isomer, unassigned) [Compound 630b, (R) or (S)-N′-((3-cyclopropyl-2-ethyl-6,7-dihydro-5H-cyclopenta[b]pyridin-4-yl)carbamoyl)-2-(2-hydroxypropan-2-yl)thiazole-5-sulfonimidamide]
IC50 [2]: 200 to 1000 nM

Compound: Cc1nc2c(c(NC(=O)N=S(N)(=O)c3cnc(C(C)(C)O)s3)c1C(C)C)CCC2 (single isomer, unassigned) [Compound 116a, (S) or (R)-2-(2-hydroxypropan-2-yl)-N′-((3-isopropyl-2-methyl-6,7-dihydro-5H-cyclopenta[b]pyridin-4-yl)carbamoyl)thiazole-5-sulfonimidamide]
IC50 (Homo sapiens, THP-1, Table B1, numeric bounds, read-out: Average IC50 of compounds in hTHP-1 assay: hTHP-1 IC50): > 30000 nM

Compound: CC(C)(O)c1sc(S(N)(=O)=NC(=O)Nc2c3c(nc4c2CCC42CC2)CCC3)cc1F (single isomer, unassigned) [Compound 614b, (S) or (R)-4-Fluoro-5-(2-hydroxypropan-2-yl)-N′-((1′,5′,6′,7′-tetrahydro-2′H-spiro[cyclopropane-1,3′-dicyclopenta[b,e]pyridin]-8′-yl)carbamoyl) thiophene-2-sulfonimidamide]
IC50 [2]: 1000 to 5000 nM

Compound: CC1CCc2c1nc1c(c2NC(=O)N=S(N)(=O)c2cn(C(C)C)cn2)CCC1 (single isomer, unassigned) [Compound 660d, (R, R) or (S, R) or (R, S) or (S, S)-1-isopropyl-N′-((3-methyl-1,2,3,5,6,7-hexahydrodicyclopenta [b,e]pyridin-8-yl)carbamoyl)-1H-imidazole-4-sulfonimidamide]
IC50 [4]: 5000 to 30000 nM

Compound: Cc1c(C(F)F)nc2c(c1NC(=O)N=S(N)(=O)c1cnc(C(C)(C)O)s1)CCC2 (single isomer, unassigned) [Compound 647b, (S) or (R)-N′-((2-(difluoromethyl)-3-methyl-6,7-dihydro-5H-cyclopenta[b]pyridin-4-yl)carbamoyl)-2-(2-hydroxypropan-2-yl)thiazole-5-sulfonimidamide]
IC50 [5]: > 30000 nM

Compound: CC(C)(O)c1cc(S(N)(=O)=NC(=O)Nc2c3c(nc4c2CCC4(C)C)CCC3)nn1-c1ccc(F)cc1 (stereo not shown) [Compound 704, N′-((3,3-dimethyl-1,2,3,5,6,7-hexahydrodicyclopenta[b,e]pyridin-8-yl)carbamoyl)-1-(4-fluorophenyl)-5-(2-hydroxypropan-2-yl)-1H-pyrazole-3-sulfonimidamide]
IC50 [4]: 1000 to 5000 nM

Compound: COCc1nc(C(C)(C)O)sc1S(N)(=O)=NC(=O)Nc1c2c(nc3c1CCC3)CCC2 (single isomer, unassigned) [Compound 689a, (S) or (R)-N′-((1,2,3,5,6,7-hexahydrodicyclopenta [b,e]pyridin-8-yl)carbamoyl)-2-(2-hydroxypropan-2-yl)-4-(methoxymethyl) thiazole-5-sulfonimidamide]
IC50 [5]: > 30000 nM

Compound: CCC1CCc2c1nc1c(c2NC(=O)N=S(N)(=O)c2sc(C(C)(C)O)cc2F)CCC1 (single isomer, unassigned) [Compound 671c, (R, S) or (R, R) or (S, R) or (S, S)-N′-((3-ethyl-1,2,3,5,6,7-hexahydrodicyclopenta [b,e]pyridin-8-yl)carbamoyl)-3-fluoro-5-(2-hydroxypropan-2-yl) thiophene-2-sulfonimidamide]
IC50 [2]: 1000 to 5000 nM

Compound: CCC1CCc2c1nc1c(c2NC(=O)N=S(N)(=O)c2sc(C(C)(C)O)cc2F)CCC1 (single isomer, unassigned) [Compound 671a, (S, S) or (S, R) or (R, S) or (R, R)-N′-((3-ethyl-1,2,3,5,6,7-hexahydrodicyclopenta [b,e]pyridin-8-yl)carbamoyl)-3-fluoro-5-(2-hydroxypropan-2-yl) thiophene-2-sulfonimidamide]
IC50 [5]: > 30000 nM

Continued, values first:

IC50 [1]: 200 to 1000 nM
Compound: CC(C)(O)c1csc(S(N)(=O)=NC(=O)Nc2c3c(nc(C(F)(F)F)c2C2CC2)CCC3)c1 (stereo not shown) [Example 609, N′-((3-cyclopropyl-2-(trifluoromethyl)-6,7-dihydro-5H-cyclopenta[b]pyridin-4-yl)carbamoyl)-4-(2-hydroxypropan-2-yl)thiophene-2-sulfonimidamide]

IC50 [1]: 5000 to 30000 nM
Compound: Cc1c(C(F)(F)F)nc2c(c1NC(=O)N=S(N)(=O)c1ccn(C)n1)CCC2 (stereo not shown) [Example 633, 1-Methyl-N′-((3-methyl-2-(trifluoromethyl)-6,7-dihydro-5H-cyclopenta[b]pyridin-4-yl)carbamoyl)-1H-pyrazole-3-sulfonimidamide]

IC50 [1]: 200 to 1000 nM
Compound: C[C@@](O)(CO)c1cc(F)c([S@](N)(=O)=NC(=O)Nc2c3c(nc4c2CCC42CC2)CCC3)s1 [Example 676, (R)-5-((R)-1,2-dihydroxypropan-2-yl)-3-fluoro-N′-((1′,5′,6′,7′-tetrahydro-2′H-spiro[cyclopropane-1,3′-dicyclopenta[b,e]pyridin]-8′-yl)carbamoyl)thiophene-2-sulfonimidamide]

IC50 [2]: 40 to 200 nM
Compound: C[C@@H]1CCc2c1nc1c(c2NC(=O)N=S(N)(=O)c2ccn(C(C)(F)F)n2)CCC1 (single isomer, unassigned) [Compound 723b, (R) or (S)-1-(1,1-Difluoroethyl)-N′-(((R)-3-methyl-1,2,3,5,6,7-hexahydrodicyclopenta [b,e]pyridin-8-yl)carbamoyl)-1H-pyrazole-3-sulfonimidamide]

IC50 [1]: 1000 to 5000 nM
Compound: Cc1c(C(F)(F)F)nc2c(c1NC(=O)N=S(N)(=O)c1cc(CO)n(C(C)C)n1)CCC2 (stereo not shown) [Example 585, 5-(Hydroxymethyl)-1-isopropyl-N′-((3-methyl-2-(trifluoromethyl)-6,7-dihydro-5H-cyclopenta[b]pyridin-4-yl)carbamoyl)-1H-pyrazole-3-sulfonimidamide]

IC50 [1]: 200 to 1000 nM
Compound: NS(=O)(=NC(=O)Nc1c2c(nc3c1CCC31CC1)CCC2)c1nn(C(F)F)cc1F (stereo not shown) [Example 569, 1-(Difluoromethyl)-4-fluoro-N′-((1′,5′,6′,7′-tetrahydro-2′H-spiro[cyclopropane-1,3′-dicyclopenta[b,e]pyridin]-8′-yl)carbamoyl)-1H-pyrazole-3-sulfonimidamide]
